From the supplement of paper PMC10307832

Legend:
Test in all cases: relative viability (nuclei count vs DMSO), 5 days (fraction); higher = more cells survive
Nelarabine + Olaparib = compound: COc1nc(N)nc2c1ncn2[C@@H]1O[C@H](CO)[C@@H](O)[C@@H]1O [Nelarabine] + O=C(c1cc(Cc2n[nH]c(=O)c3ccccc23)ccc1F)N1CCN(C(=O)C2CC2)CC1 [Olaparib] (partner 8 µM)
Outline: (§1)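 Values are medians from duplicate plates. Each reflects relative viability, defined as the nuclei count of treated wells over that of vehicle wells. Lung cancer cell lines in 1536-well plates were pin-tool dosed one day after seeding with one drug alone or with a fixed anchor-drug dose plus five library-drug doses (not always all listed) in √10 steps, then fixed, stained and imaged at 4× after 5 days.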

Adavosertib + Linsitinib = compound: C=CCn1c(=O)c2cnc(Nc3ccc(N4CCN(C)CC4)cc3)nc2n1-c1cccc(C(C)(C)O)n1 [Adavosertib] + C[C@]1(O)C[C@@H](c2nc(-c3ccc4ccc(-c5ccccc5)nc4c3)c3c(N)nccn32)C1 [Linsitinib] (partner 1 µM)
Outline: as §1

Nelarabine + Crizotinib = compound: COc1nc(N)nc2c1ncn2[C@@H]1O[C@H](CO)[C@@H](O)[C@@H]1O [Nelarabine] + C[C@@H](Oc1cc(-c2cnn(C3CCNCC3)c2)cnc1N)c1c(Cl)ccc(F)c1Cl [Crizotinib] (partner 1 µM)
Outline: as §1

Nelarabine + Pemetrexed = compound: COc1nc(N)nc2c1ncn2[C@@H]1O[C@H](CO)[C@@H](O)[C@@H]1O [Nelarabine] + Nc1nc2[nH]cc(CCc3ccc(C(=O)N[C@@H](CCC(=O)O)C(=O)O)cc3)c2c(=O)[nH]1 [Pemetrexed] (partner 0.2 µM)
Outline: as §1

Row | Cell Line | relative viability (Nelarabine + Olaparib; first compound 0.01 µM) | relative viability (Nelarabine + Olaparib; first compound 0.03162 µM) | relative viability (Nelarabine + Olaparib; first compound 0.1 µM) | relative viability (Nelarabine + Olaparib; first compound 0.3162 µM) | relative viability (Nelarabine + Olaparib; first compound 1 µM) | relative viability (Adavosertib + Linsitinib; first compound 0.03162 µM) | relative viability (Adavosertib + Linsitinib; first compound 0.1 µM) | relative viability (Adavosertib + Linsitinib; first compound 0.3162 µM) | relative viability (Nelarabine + Crizotinib; first compound 0.01 µM) | relative viability (Nelarabine + Crizotinib; first compound 0.03162 µM) | relative viability (Nelarabine + Crizotinib; first compound 0.1 µM) | relative viability (Nelarabine + Crizotinib; first compound 0.3162 µM) | relative viability (Nelarabine + Crizotinib; first compound 1 µM) | relative viability (Nelarabine + Pemetrexed; first compound 0.01 µM) | relative viability (Nelarabine + Pemetrexed; first compound 0.03162 µM) | relative viability (Nelarabine + Pemetrexed; first compound 0.1 µM) | relative viability (Nelarabine + Pemetrexed; first compound 0.3162 µM) | relative viability (Nelarabine + Pemetrexed; first compound 1 µM) | relative viability (Adavosertib + Linsitinib; first compound 0.01 µM)
1 | NCI-H322M | 0.79 | 0.75 | 0.701 | 0.827 | 0.836 | 0.789 | 0.982 | 0.535 | 0.884 | 0.88 | 0.853 | 0.948 | 0.837 | 0.601 | 0.565 | 0.631 | 0.653 | 0.61 | 
2 | HCC-15 | 0.813 | 0.691 | 0.931 | 0.667 | 0.846 | 0.876 | 1.05 | 0.989 | 1.01 | 0.782 | 0.86 | 0.97 | 0.887 | 0.233 | 0.242 | 0.218 | 0.212 | 0.217 | 0.878
3 | A-427 | 0.796 | 0.818 | 0.812 | 0.803 | 0.704 | 1.05 | 1.05 | 1.03 | 1.02 | 0.636 | 0.872 | 0.957 | 0.893 | 1.04 | 1.05 | 1.11 | 0.984 | 0.838 | 1.09
4 | NCI-H2228 | 0.664 | 0.574 | 0.322 | 0.826 | 0.447 | 0.623 | 0.76 | 0.395 | 0.414 | 0.371 |  | 0.351 | 0.436 | 0.342 | 0.346 | 0.269 | 0.374 | 0.4 | 0.629
5 | CAL-12T | 0.662 | 0.87 | 0.748 | 0.676 | 0.73 | 0.818 | 0.939 | 0.944 | 0.517 | 0.514 | 0.61 | 0.806 | 0.549 | 1.55 | 1.19 | 1.42 | 1.2 | 1.22 | 0.822
6 | NCI-H460 | 0.748 | 0.581 | 0.479 | 0.552 | 0.521 | 0.777 | 0.594 | 0.285 | 1.32 | 1.1 | 1.02 | 1.08 | 1.05 | 0.0547 | 0.0633 | 0.0599 | 0.0615 | 0.0625 | 0.971
7 | NCI-H661 | 0.876 | 0.709 | 0.762 | 0.748 | 0.796 | 0.648 | 0.463 | 0.417 |  | 0.877 | 0.989 | 0.973 | 0.934 | 0.963 | 1.07 | 0.865 | 0.899 | 0.899 | 0.609
8 | HARA | 0.843 | 0.569 | 0.746 | 0.834 | 0.636 | 1.06 | 0.98 | 0.97 | 1.21 | 1.09 | 0.909 | 1.24 | 1.12 | 0.233 | 0.28 | 0.225 | 0.288 | 0.226 | 0.907
9 | NCI-H1437 | 0.701 | 0.611 | 0.656 | 0.695 | 0.611 | 1.11 | 1.12 | 1.09 | 1.27 | 0.844 | 0.912 | 0.895 | 0.905 | 0.344 | 0.359 | 0.301 | 0.39 | 0.323 | 1.08
10 | 201T | 0.876 | 0.835 | 0.845 | 0.858 | 0.835 | 0.957 | 0.941 | 1.08 | 1.04 | 0.968 | 0.84 | 1.06 | 1.02 | 0.378 | 0.279 | 0.349 | 0.417 | 0.444 | 1.04
11 | LC-2-ad | 0.748 | 0.39 | 0.668 | 0.753 | 0.701 | 0.883 | 0.781 | 0.729 | 0.497 | 0.404 | 0.444 | 0.421 | 0.447 | 0.304 | 0.249 | 0.267 | 0.286 | 0.275 | 0.773
12 | NCI-H441 | 0.5 | 0.518 | 0.561 | 0.677 | 0.697 | 0.5 | 0.496 | 0.329 | 0.715 | 0.856 | 0.723 | 0.836 | 0.716 | 0.249 | 0.277 | 0.27 | 0.238 | 0.282 | 0.552
